Test system: inducible nitric oxide synthase (INOS)
Experiment: LPS-induced INOS activity in J774 cells (DAF-2 fluorescence)
Assay type: cell-based, mouse
Settings: pre-treatment 6 hours before and 24 hours after LPS (1 μg/ml), sub-nanomolar-nanomolar concentrations, FIG. 1
Experimental: In this assay system, lipopolysaccharide (LPS) was used to induce the expression of INOS in the mouse macrophage cell line, J774. […] This reduction in INOS activity correlated with a reduction in LPS-induced INOS mRNA expression.
Specifically, LPS-induced INOS activity was measured using the following assay conditions. J774 cells were seeded at a density of […] per well, in a black, clear-bottomed, 96 well plate, 24hours prior to use. The cell culture and the drug dilutions were carried out in complete media, which consisted of DMEM (Dulbecco's modification of Eagle's medium) containing foetal calf serum (10%), glutamine (2 mM), penicillin (100 μ/ml) and streptomycin (100 μg/ml). The J774 cells were pre-treated with the PPAR delta activators A and B, or vehicle, for 6 hours prior to, and for 24 hours subsequent to the addition of LPS (typically, a concentration of 1 μg/ml of LPS was used). Twenty-four hours after the addition of LPS, INOS activity was measured by the following method. […] After incubation at 37° C. for 3 hours, fluorescence from each well was measured at an excitation wavelength of 485 nm, and an emission wavelength of 530 nm. […]
LPS to induce INOS activity, in the presence and absence of PPAR delta activators, was then calculated. […]

| SMILES | inhibition of LPS-induced INOS activity |
| --- | --- |
| Cc1cc(SCc2sc(-c3ccc(C(F)(F)F)c(F)c3)nc2C)ccc1OCC(=O)O [Compound B, 2-{2-methyl-4-[({4-methyl-2-[3-fluoro-4-(trifluoromethyl)phenyl]-1,3-thiazol-5-yl}methyl)sulfanyl]phenoxy}acetic acid] | marked inhibition |
| Cc1cc(SCc2sc(-c3ccc(C(F)(F)F)cc3)nc2C)ccc1OCC(=O)O [Compound A, 2-{2-methyl-4-[({4-methyl-2-[4-(trifluoromethyl)phenyl]-1,3-thiazol-5-yl}methyl)sulfanyl]phenoxy}acetic acid] | marked inhibition |
